Experimental data as given in ChEMBL document CHEMBL4219157, “Alkylated/aminated nitroimidazoles and nitroimidazole-7-chloroquinoline conjugates: Synthesis and anti-mycobacterial evaluation” (Bioorg Med Chem Lett, 2018).
In brackets after ≈: the same amount, converted by molar mass.

Assays:
[1] = tested on: Mycobacterium tuberculosis; assay: Antitubercular activity against Mycobacterium tuberculosis mc2 6230 after 7 days by broth microdilution assay; format: functional; details: mc2 6230, 168 h
[2] = Selectivity index, ratio of IC50 for mouse J774 cells to MIC50 for Mycobacterium tuberculosis mc2 6230; format: toxicity; details: read-out: Selectivity Index
J774 = assay: Cytotoxicity against mouse J774 cells assessed as decrease in cell viability after 24 hrs by resazurin based assay; details: J774, 24 h

Row | SMILES | MIC50 [1] | selectivity ratio [2] | IC50 (J774)
1 | Clc1ccc2c(N3CCNCC3)ccnc2c1 | 92 µg/mL (≈ 371 µM) | – | –
2 | Cc1ncc([N+](=O)[O-])n1CCCN1CCN(c2ccnc3cc(Cl)ccc23)CC1 | 3.8 µg/mL (≈ 9.16 µM) | > 26.3 | > 100 µg/mL
3 | Cc1ncc([N+](=O)[O-])n1CCCN1CCCC1 | 19.3 µg/mL (≈ 81 µM) | > 5.2 | > 100 µg/mL
4 | Cc1ncc([N+](=O)[O-])n1CCCCCN1CCN(c2ccnc3cc(Cl)ccc23)CC1 | 5.2 µg/mL (≈ 11.7 µM) | 5.6 | 28.9 µg/mL (≈ 65.2 µM)
5 | Cc1ncc([N+](=O)[O-])n1CCCCN1CCCCC1 | 19.3 µg/mL (≈ 72.5 µM) | > 5.2 | > 100 µg/mL
6 | Cc1ncc([N+](=O)[O-])n1CCCCCN1CCCC1 | 12.3 µg/mL (≈ 46.2 µM) | > 8.1 | > 100 µg/mL
7 | Cc1ncc([N+](=O)[O-])n1CCCCN1CCCC1 | 12.6 µg/mL (≈ 49.9 µM) | > 8 | > 100 µg/mL
8 | Cc1ncc([N+](=O)[O-])n1CCCCCN1CCCCC1 | 49 µg/mL (≈ 175 µM) | > 2 | > 100 µg/mL
9 | Cc1ncc([N+](=O)[O-])n1CCCCCCN1CCN(c2ccnc3cc(Cl)ccc23)CC1 | 1.2 µg/mL (≈ 2.63 µM) | < 0.66 | < 0.8 µg/mL
10 | Cc1ncc([N+](=O)[O-])n1CCCN1CCCCC1 | > 100 µg/mL | – | > 100 µg/mL
11 | Cc1ncc([N+](=O)[O-])n1CCCCN1CCOCC1 | 23.1 µg/mL (≈ 86.1 µM) | > 4.3 | > 100 µg/mL
12 | Cc1ncc([N+](=O)[O-])n1CCCCCCBr | 4.9 µg/mL (≈ 16.9 µM) | 14.1 | 69.9 µg/mL (≈ 241 µM)
13 | Cc1ncc([N+](=O)[O-])n1CCCCBr | 17.7 µg/mL (≈ 67.5 µM) | 3.4 | 61 µg/mL (≈ 233 µM)
14 | Cc1ncc([N+](=O)[O-])n1CCCCCN1CCOCC1 | > 100 µg/mL | – | > 100 µg/mL
15 | Cc1ncc([N+](=O)[O-])n1CCCN1CCOCC1 | 18 µg/mL (≈ 70.8 µM) | > 5.5 | > 100 µg/mL
16 | Cc1ncc([N+](=O)[O-])n1CCCBr | 5.3 µg/mL (≈ 21.4 µM) | 10.3 | 54.8 µg/mL (≈ 221 µM)
17 | Cc1ncc([N+](=O)[O-])n1CCCCCBr | 13.3 µg/mL (≈ 48.2 µM) | 6.2 | 83 µg/mL (≈ 301 µM)
18 | Cc1ncc([N+](=O)[O-])n1CCCCN1CCN(c2ccnc3cc(Cl)ccc23)CC1 | 2.2 µg/mL (≈ 5.13 µM) | > 45.3 | > 100 µg/mL
19 | NNC(=O)c1ccncc1 [ISONIAZID] | 0.019 µg/mL (≈ 0.139 µM) | – | –
